# Assay results as given in US12357644B2, “Acetyl salicylic acid composition for intravenous administration, its storage, production and use” (HYLORIS DEVELOPMENTS SA, priority 2022, dated 2025).
# Where “and” joins values, the source holds several entries; their conditions need not be identical. Equal values may be shown once.
# Experiments:
# [1] = Reconstitution testing of ASA in buffer diluents; format: physicochemical; conditions: gamma irradiated ASA
# Description: The material produced in the radiation and spray drying experiments was tested in reconstitution studies and compared to non-sterile, crystalline acetyl salicylic acid.
# The buffer systems were tested for reconstitution of 325.0 mg gamma irradiated acetyl salicylic acid powder in 5 or 10 ml reconstitution fluid. Different buffer strengths were screened. […]
# [2] = Terminal sterilization by autoclaving, degradation of ASA; format: physicochemical; conditions: autoclaving at 121° C. for 20 mins
# Description: In yet another alternative, the first component comprises an autoclaved terminally sterilized acetyl salicylic acid particulate powder. The terminally sterilized material may be obtained by autoclaving at 121° C. for 20 mins.
# Alternatively, the first component was prepared by filling acetyl salicylic acid into vials and terminally sterilizing the ASA filled vials for 20 minutes at 121° C. A skilled person would not expect that a two-component system can be based on autoclaved ASA due to an expected incompatibility with heat.
# [3] = buffer —, purified water Ad 10 g, 10 mL
smiles,measurement,setting,value
"CC(=O)Oc1ccccc1C(=O)O [ASA, Acetyl salicylic acid]",pH after reconstitution,[1]; Carbonate - NaOH 0.15M,6.254
same,325 mg ASA dissolves?,"[1]; Carbonate - NaOH 0.2M, 10 mL",YES -
same,pH after reconstitution,"[1]; Carbonate - NaOH 0.2M, 10 mL",9.160
same,325 mg ASA dissolves?,"[1]; Carbonate - NaOH 0.25, 10 mL",YES -
same,pH after reconstitution,"[1]; Carbonate - NaOH 0.25, 10 mL",9.646
same,Time needed to dissolve (±),"[1]; Carbonate - NaOH 0.25, 10 mL, (3 min) + <1 min",<1 min
same,325 mg ASA dissolves?,"[1]; Carbonate - NaOH 0.5M, 5 mL",YES -
same,Time needed to dissolve (±),"[1]; Carbonate - NaOH 0.5M, 5 mL",3 min
same,pH after reconstitution,"[1]; Carbonate - NaOH 0.5M, 5 mL",7.534
same,325 mg ASA dissolves?,"[1]; Carbonate - NaOH 1M, 5 mL",YES -
same,Time needed to dissolve (±),"[1]; Carbonate - NaOH 1M, 5 mL",<3 min
same,pH after reconstitution,"[1]; Carbonate - NaOH 1M, 5 mL",9.308
same,"325 mg ASA dissolves? If yes, in 5 or 10 mL?","[1]; Carbonate-NaOH 0.025M, Ad 10 g",YES - 5 mL
same,Time needed to dissolve (±),"[1]; Carbonate-NaOH 0.025M, 5 mL",0.5 min
same,pH after reconstitution,"[1]; Carbonate-NaOH 0.025M, 5 mL",9.233
same,pH after reconstitution,[1]; NaOH 0.1M,4.199
same,"325 mg ASA dissolves? If yes, in 5 or 10 mL?",[1]; NaOH 0.25M,YES - 10 mL
same,pH after reconstitution,"[1]; NaOH 0.25M, 10 mL",7.099
same,Time needed to dissolve (±),"[1]; NaOH 0.25M, 10 mL, (3 min) + <1 min",<1 min
same,"325 mg ASA dissolves? If yes, in 5 or 10 mL?",[1]; NaOH 0.3M,YES - 10 mL
same,Time needed to dissolve (±),"[1]; NaOH 0.3M, 10 mL, printed as (3 min) + 1 min",1 min
same,"325 mg ASA dissolves? If yes, in 5 or 10 mL?",[1]; NaOH 0.4M,YES - 10 mL
same,pH after reconstitution,"[1]; NaOH 0.4M, 10 mL",12.103
same,Time needed to dissolve (±),"[1]; NaOH 0.4M, 10 mL, (3 min) + <1 min",<1 min
same,"325 mg ASA dissolves? If yes, in 5 or 10 mL?",[1]; NaOH 0.5M,YES - 5 mL
same,Time needed to dissolve (±),"[1]; NaOH 0.5M, 5 mL",<1 min
same,pH after reconstitution,"[1]; NaOH 0.5M, 5 mL",7.229
same,"325 mg ASA dissolves? If yes, in 5 or 10 mL?",[1]; NaOH 1M,YES - 5 mL
same,Time needed to dissolve (±),"[1]; NaOH 1M, 5 mL",<0.25 min
same,pH after reconstitution,"[1]; NaOH 1M, 5 mL",12.814
same,325 mg ASA dissolves?,"[1]; TBST 1M, pH of medium 7.574, 10 mL",YES -
same,Time needed to dissolve (±),"[1]; TBST 1M, 10 mL",15 min
same,pH after reconstitution,"[1]; TBST 1M, 10 mL",7.100
same,Time needed to dissolve (±),"[1]; Tris 0.025M, Ad 10 g, volume as in the dissolves column of the same line",<1 min and 2 min
same,pH after reconstitution,[1]; Tris 0.1M,4.195
same,325 mg ASA dissolves?,"[1]; Tris 0.25M, pH of medium 10.701, 10 mL",YES -
same,pH after reconstitution,"[1]; Tris 0.25M, 10 mL",7.616
same,325 mg ASA dissolves?,"[1]; Tris 0.5M, pH of medium 10.814, 5 mL",YES -
same,Time needed to dissolve (±),"[1]; Tris 0.5M, 5 mL",3 min
same,pH after reconstitution,"[1]; Tris 0.5M, 5 mL",7.592
same,325 mg ASA dissolves?,"[1]; Tris 1M, pH of medium 11.047, 5 mL",YES -
same,Time needed to dissolve (±),"[1]; Tris 1M, 5 mL",3 min
same,pH after reconstitution,"[1]; Tris 1M, 5 mL",8.550
same,"325 mg ASA dissolves? If yes, in 5 or 10 mL?","[1]; buffer — , strength —, purified water Ad 10 g",Yes - 10 mL
same,Time needed to dissolve (±),[1]; [3],30 min
same,pH after reconstitution,[1]; [3],8.125
same,degradation of acetyl salicylic acid,[2],no degradation
